One may read the IC50 as the point on the concentration scale where inhibition reaches its midpoint. The low end stands for greater potency, the high end for weaker potency.

IC50 data for two compounds are collected here from ChEMBL document CHEMBL1914349, “Porpoisamides A and B, two novel epimeric cyclic depsipeptides from a Florida Keys collection of Lyngbya sp” (Bioorg Med Chem, 2011).

For experiment [1], the system named is HCT-116. The experiment is described as follows: Antiproliferative activity against human HCT116 cells after 48 hrs by MTT assay. The experiment is classed as functional, cell-based. As to conditions: HCT-116, 48 h. In general terms: Formazan colour is commonly taken as a measure of viable cells.
For experiment [2], the system named is U2OS. The experiment is described as follows: Antiproliferative activity against human U2OS cells after 48 hrs by MTT assay. The experiment is classed as functional, cell-based.

In the case of `CCCCC[C@H]1NC(=O)[C@H](C)NC(=O)[C@@H](Cc2ccccc2)N(C)C(=O)[C@@H]2CCCN2C(=O)[C@H]([C@@H](C)CC)OC(=O)[C@H]1C` [PORPOISAMIDE A], the half-maximal inhibitory concentration (IC50) in experiment [1] came out at 25 µM; in experiment [2], 28 µM.

For `CCCCC[C@H]1NC(=O)[C@H](C)NC(=O)[C@@H](Cc2ccccc2)N(C)C(=O)[C@@H]2CCCN2C(=O)[C@H]([C@@H](C)CC)OC(=O)[C@@H]1C` [PORPOISAMIDE B], the IC50 stood at 21 µM in experiment [1] and 22 µM in experiment [2].
